Patent publication US12581252B2, “Substituted pyrrolo[3,4-b]pyridines as PI3K-α inhibitors” (Relay Therapeutics, Inc., priority 2020, dated 2026)

Molecular target: H1047R PIK3CA enzyme (Homo sapiens, UniProt P42336, H1047R)
Assay: ADP-Glo Biochemical PIK3CA Kinase Assay

H1047R PIK3CA enzyme, sequence (P42336 whole entry H1047R): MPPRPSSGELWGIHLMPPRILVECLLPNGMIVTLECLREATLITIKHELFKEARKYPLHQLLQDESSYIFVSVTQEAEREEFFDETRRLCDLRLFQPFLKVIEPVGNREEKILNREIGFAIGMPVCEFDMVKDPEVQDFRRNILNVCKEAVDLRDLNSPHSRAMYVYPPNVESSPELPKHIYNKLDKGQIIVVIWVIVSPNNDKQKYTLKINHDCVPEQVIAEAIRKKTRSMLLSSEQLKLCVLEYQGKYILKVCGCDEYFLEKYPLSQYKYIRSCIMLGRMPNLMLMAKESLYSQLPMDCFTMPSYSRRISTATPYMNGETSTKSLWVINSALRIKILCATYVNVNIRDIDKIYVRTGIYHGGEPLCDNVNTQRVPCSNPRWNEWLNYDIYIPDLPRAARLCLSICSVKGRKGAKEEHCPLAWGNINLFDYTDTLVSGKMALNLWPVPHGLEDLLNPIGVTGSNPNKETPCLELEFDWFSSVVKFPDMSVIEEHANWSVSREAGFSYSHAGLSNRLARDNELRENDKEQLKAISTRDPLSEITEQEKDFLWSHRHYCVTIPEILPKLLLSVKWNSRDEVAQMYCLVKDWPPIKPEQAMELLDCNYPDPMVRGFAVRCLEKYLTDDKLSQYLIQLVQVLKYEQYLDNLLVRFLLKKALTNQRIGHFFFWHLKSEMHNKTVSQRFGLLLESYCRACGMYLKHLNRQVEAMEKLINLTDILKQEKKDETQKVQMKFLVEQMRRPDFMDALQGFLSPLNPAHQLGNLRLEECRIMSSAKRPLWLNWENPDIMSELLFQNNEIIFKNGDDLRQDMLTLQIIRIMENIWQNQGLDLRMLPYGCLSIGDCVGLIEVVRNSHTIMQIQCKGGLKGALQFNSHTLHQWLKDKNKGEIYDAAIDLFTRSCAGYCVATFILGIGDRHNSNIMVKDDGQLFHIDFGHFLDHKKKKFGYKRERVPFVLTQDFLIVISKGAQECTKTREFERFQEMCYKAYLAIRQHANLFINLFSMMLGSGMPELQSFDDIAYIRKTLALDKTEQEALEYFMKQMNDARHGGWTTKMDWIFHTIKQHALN
H1047R PIK3CA enzyme, sequence (P27986 whole entry partner): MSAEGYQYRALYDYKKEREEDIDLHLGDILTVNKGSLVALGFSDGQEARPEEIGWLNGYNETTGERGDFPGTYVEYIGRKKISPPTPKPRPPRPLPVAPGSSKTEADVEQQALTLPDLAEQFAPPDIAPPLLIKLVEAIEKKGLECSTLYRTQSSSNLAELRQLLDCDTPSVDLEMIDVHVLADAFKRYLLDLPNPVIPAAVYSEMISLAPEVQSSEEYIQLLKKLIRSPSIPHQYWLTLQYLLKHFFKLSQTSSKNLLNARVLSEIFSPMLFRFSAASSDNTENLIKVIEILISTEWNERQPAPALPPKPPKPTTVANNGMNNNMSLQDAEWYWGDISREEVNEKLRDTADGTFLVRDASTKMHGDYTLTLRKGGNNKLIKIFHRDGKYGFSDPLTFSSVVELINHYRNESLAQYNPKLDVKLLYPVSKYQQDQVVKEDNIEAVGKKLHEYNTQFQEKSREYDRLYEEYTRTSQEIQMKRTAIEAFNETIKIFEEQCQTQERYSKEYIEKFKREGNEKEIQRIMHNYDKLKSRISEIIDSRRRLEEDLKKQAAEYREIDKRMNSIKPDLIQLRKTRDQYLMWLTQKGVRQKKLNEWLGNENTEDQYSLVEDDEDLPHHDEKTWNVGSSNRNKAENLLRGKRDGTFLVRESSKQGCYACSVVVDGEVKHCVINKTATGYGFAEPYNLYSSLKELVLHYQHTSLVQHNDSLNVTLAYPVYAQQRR

| Compound | IC50 [µM] |
| --- | --- |
| Cc1ccccc1C1NC(=O)c2cccc(NC(=O)c3cc(F)cc(C(F)(F)F)c3)c21 (stereo not shown) [Compound I-2] | 0.1 to 0.5 |
| N#C/N=C(\Nc1ccc(F)cc1C(F)(F)F)Nc1cc(Br)cc2c1C(c1cc(F)ccc1Cl)NC2=O (stereo not shown) [Compound I-1502] | 1 to 10 |
| CS(=O)(=O)c1cc(NC(=O)c2cc(F)cc(C(F)(F)F)c2)c2c(c1)C(=O)NC2c1cc(F)ccc1Cl (stereo not shown) [Compound I-1276] | ≤ 0.1 |
| Cc1ccccc1C1NC(=O)c2cccc(NC(=O)C3CCc4ccccc43)c21 (stereo not shown) [Compound I-256] | 1 to 10 |
| CC(C)(C)OC(=O)NCCSc1cc(NC(=O)c2cc(F)cc(C(F)(F)F)c2)c2c(c1)C(=O)NC2c1cc(F)ccc1Cl (stereo not shown) [Compound I-1297] | 0.1 to 0.5 |
| O=C(Nc1cc(-c2ccc3ncnn3c2)cc2c1[C@@H](c1cc(F)ccc1Cl)NC2=O)c1cc(F)c(F)c(Cl)c1 (stereo in doubt) [Compound I-1174] | 1 to 10 |
| Cn1ccc2c(C(=O)Nc3cc(Br)cc4c3C(c3cc(F)ccc3Cl)NC4=O)cccc21 (stereo not shown) [Compound I-670] | 10 to 100 |
| CC(=O)N1CC(c2cc(NC(=O)c3cc(F)cc(C(F)(F)F)c3)c3c(c2)C(=O)NC3c2cc(F)ccc2Cl)C1 (stereo not shown) [Compound I-655] | ≤ 0.1 |
| O=C(Nc1cc(Br)cc2c1[C@H](c1cc(F)ccc1F)NC2=O)c1cc(F)cc(C(F)(F)F)c1 [Compound I-674] | 0.1 to 0.5 |
| CC(=O)Cc1cc(NC(=O)c2cc(F)cc(C(F)(F)F)c2)c2c(c1)C(=O)NC2c1cc(F)ccc1C(F)F (stereo not shown) [Compound I-620] | ≤ 0.1 |
| O=C(Nc1cc(OC2CN(C(=O)C(F)(F)F)C2)cc2c1C(c1cc(F)ccc1Cl)NC2=O)c1cc(F)cc(C(F)(F)F)c1 (racemic) [Compound I-1320] | 0.1 to 0.5 |
| Cc1ccccc1C1NC(=O)c2cc(C(F)F)cc(NC(=O)c3cc(F)cc(C(F)(F)F)c3)c21 (stereo not shown) [Compound I-692] | 0.1 to 0.5 |
| Cc1ccccc1C1NC(=O)c2cc(C(O)CO)cc(NC(=O)c3csc4ccccc34)c21 (mixture of isomers) [Compound I-139, N-[6-(1,2-Dihydroxyethyl)-3-(2-methylphenyl)-1-oxo-2,3-dihydro-1H-isoindol-4-yl]-1-benzothiophene-3-carboxamide] | ≤ 0.1 |
| Nc1c(Cl)cc(F)cc1C(=O)Nc1cc(Br)cc2c1C(c1cc(F)ccc1Cl)NC2=O (stereo not shown) [Compound I-843] | 0.1 to 0.5 |
| O=C(Nc1cc(C2CCOCC2)cc2c1C(c1cc(F)ccc1Cl)NC2=O)c1cc(F)cc(C(F)(F)F)c1 (stereo not shown) [Compound I-1187] | ≤ 0.1 |
| O=C(Nc1cc(C2CCCOC2)cc2c1C(c1cc(F)ccc1Cl)NC2=O)c1cc(F)cc(C(F)(F)F)c1 (stereo not shown) [Compound I-1142] | ≤ 0.1 |
| O=C(Nc1cc(NC(=O)c2cc(F)cc(C(F)(F)F)c2)c2c(c1)C(=O)NC2c1cc(F)ccc1Cl)c1cccnc1 (stereo not shown) [Compound I-1356] | ≤ 0.1 |
| Cc1ccccc1C1NC(=O)c2c(C(N)=O)ccc(NC(=O)c3csc4ccccc34)c21 (stereo not shown) [Compound I-149, 7-(Benzo[b]thiophene-3-carboxamido)-3-oxo-1-(o-tolyl)isoindoline-4-carboxamide] | ≤ 0.1 |
| O=C(Nc1cc(-c2cncc3ccccc23)cc2c1C(c1cc(F)ccc1Cl)NC2=O)c1cc(F)cc(C(F)(F)F)c1 (stereo not shown) [Compound I-852] | ≤ 0.1 |
| COc1cccc(C2NC(=O)c3cccc(NC(=O)c4cc(F)cc(C(F)(F)F)c4)c32)c1 (stereo not shown) [Compound I-687] | 10 to 100 |
| O=C(Nc1cc(Cn2cccn2)cc2c1C(c1cc(F)ccc1Cl)NC2=O)c1cc(F)cc(C(F)(F)F)c1 (stereo not shown) [Compound I-1497] | ≤ 0.1 |
| O=C(Nc1cc(-c2cn3ncnc3cn2)cc2c1[C@@H](c1cc(F)ccc1Cl)NC2=O)c1cc(F)cc(C(F)(F)F)c1 [Compound I-1440] | 1 to 10 |
| CC(O)c1cc(NC(=O)c2cc(F)cc(C(F)(F)F)c2)c2c(n1)C(=O)NC2c1cc(F)ccc1Cl (stereo not shown) [Compound I-280] | 0.1 to 0.5 |

Further lines, results first:

| IC50 [µM] | Compound |
| --- | --- |
| 1 to 10 | O=C(Nc1ccccc1)Nc1cc(Br)cc2c1[C@@H](c1cc(F)ccc1Cl)NC2=O (stereo in doubt) [Compound I-1946] |
| ≤ 0.1 | N#Cc1c(-c2cc(NC(=O)c3cc(F)cc(C(F)(F)F)c3)c3c(c2)C(=O)NC3c2cc(F)ccc2Cl)cnn1C(F)F (stereo not shown) [Compound I-1862] |
| 10 to 100 | O=C1NC(c2cc(F)ccc2Cl)c2c(NC(=O)N3CC(C(F)(F)F)Nc4ccccc43)cccc21 (stereo not shown) [Compound I-2339] |
| 0.5 to 1 | N#Cc1cnn(Cc2cc(NC(=O)N3C[C@@](O)(C(F)(F)F)c4cc(F)ccc43)c3c(c2)C(=O)N[C@@H]3c2cc(F)ccc2Cl)c1 (single isomer, unassigned) [Compound I-2670] |
| 10 to 100 | O=C1CCc2cc(F)cc(C(=O)Nc3cccc4c3C(c3cc(F)ccc3Cl)NC4=O)c2N1 (stereo not shown) [Compound I-1545] |
| ≤ 0.1 | O=C1C[C@@H](c2cc(NC(=O)c3cc(F)cc(C(F)(F)F)c3)c3c(c2)C(=O)N[C@H]3c2cc(F)ccc2Cl)CN1 (single isomer, unassigned) [Compound I-1710] |
| 1 to 10 | N#CCc1ccc(NC(=O)N2C[C@](O)(C(F)(F)F)c3cc(F)ccc32)c2c1C(=O)N[C@@H]2c1cc(F)ccc1Cl (single isomer, unassigned) [Compound I-2615] |
| 0.5 to 1 | O=C1N[C@@H](c2cc(F)ccc2Cl)c2c(NC(=O)N3C[C@@H](O)c4cc(F)ccc43)cc(-n3ccnn3)cc21 (single isomer, unassigned) [Compound I-2370] |
| 10 to 100 | O=C1NC(c2cc(F)ccc2Cl)c2c(NC(=O)C34CC(CO)(C3)C4)cccc21 (stereo not shown) [Compound I-2219] |
| 1 to 10 | O=C1NC(c2cc(F)ccc2Cl)c2c(NC(=O)N3CCC(C(F)(F)F)C3)cc(-c3ccc4ncnn4c3)cc21 (stereo not shown) [Compound I-1903] |
| 10 to 100 | N#Cc1ccc2c(c1)CCN2C(=O)Nc1cccc2c1C(c1cc(F)ccc1Cl)NC2=O (stereo not shown) [Compound I-2426] |
| 10 to 100 | O=C1N[C@@H](c2cc(F)ccc2Cl)c2c(NC(=O)N3C[C@H](O)c4cccc(F)c43)cccc21 (single isomer, unassigned) [Compound I-2209] |
| 1 to 10 | O=C1N[C@@H](c2cc(F)ccc2Cl)c2c(NC(=O)N3C[C@](O)(C(F)(F)F)c4cc(F)ccc43)cccc21 (single isomer, unassigned) [Compound I-2515] |
| 10 to 100 | CN1CCCC[C@H]1[C@@H]1NC(=O)c2cccc(NC(=O)c3cc(F)cc(C(F)(F)F)c3)c21 (racemic) [Compound I-1733] |
| ≤ 0.1 | O=C1NC(c2cc(F)ccc2Cl)c2c(NC(=O)C3CCCC(C(F)(F)F)C3)cc(-c3ccc4ncnn4c3)cc21 (mixture of isomers) [Compound I-1816] |
| 10 to 100 | CN1CCC(C2NC(=O)c3cccc(NC(=O)c4cc(F)cc(C(F)(F)F)c4)c32)CC1 (stereo not shown) [Compound I-1815] |
| 1 to 10 | N#CCc1cc(NC(=O)N2C[C@@](O)(C(F)(F)F)c3ccccc32)c2c(c1)C(=O)N[C@H]2c1cc(F)ccc1Cl (single isomer, unassigned) [Compound I-2602] |
| ≤ 0.1 | C[C@@]1(O)CN(C(=O)Nc2cc(Br)cc3c2C(c2cc(F)ccc2Cl)NC3=O)c2ccccc21 (single isomer, unassigned) [Compound I-1511] |
| 1 to 10 | O=C1C[C@@H](c2cc(NC(=O)c3cc(F)cc(C(F)(F)F)c3)c3c(c2)C(=O)N[C@@H]3c2cc(F)ccc2Cl)CN1 (single isomer, unassigned) [Compound I-1712] |
| 1 to 10 | O=C1NC(c2cc(F)ccc2Cl)c2c(NC(=O)C3CCCC(C(F)(F)F)N3)cc(-c3ccc4ncnn4c3)cc21 (mixture of isomers) [Compound I-1992] |
